# Results as given in patent US5563044A, “Process for the enzymatic preparation of GRF(1-44)NH2” (Hoffmann-La Roche Inc., priority 1995, dated 1996).
# Ends that are not written are not given here.
# Experiments:
# [1] = qualitative statement in background; comparison of the 44, 40 and 37 amino acid forms and the free acid; cited from earlier work
# [2] = test system: rat pituitary cell cultures; assay: In vitro bioassay in rat pituitary cell cultures with a specific rat growth hormone radioimmunoassay; assay type: cell-based; settings: relative potency; rat pituitary in vitro bioassay in which the potency of GRF(1-44)-NH2 standard is 1.00; enzymatically prepared product of Example 1
# Method: All amino acid derivatives were of the L-configuration and purchased from Bachem (Torrance, Calif.). Porcine trypsin (Sigma, Type IX) was assayed against N^α benzoyl-L-arginine ethyl ester (BAEE) and the specific activity determined to be 1.85×10^4 U/mg. It was treated with N-tosyl-L-phenylalaninechloromethylketone (TPCK) [G. Schoellman and E. Shaw, Biochemistry, 2, 252 ([…])] and dialyzed extensively against distilled water and lyophilized to give 2.02×10^4 U/mg. N,N-Dimethylacetamide (Kodak, Spectro Grade) and 1,4-butanediol (Sigma, Gold Label) were dried over 3A sieves. Tryptic digests were carried out in solutions of the peptide (1 mg/mL) and bovine trypsin (Millipore, 0.1 mg/mL) in 0.5M NH4 HCO3 (pH 8.0) for 20 hours. All pH measurements were made with a glass electrode. In vitro bioassays were done in rat pituitary cell cultures and using a specific rat growth hormone radioimmunoassay as previously described (P. Brazeau et al., Proc. Natl. Acad. Sci. USA, 79, 7909 (1982). GRF(1-43)-OH was prepared by solid-phase synthesis as follows:
# The final yield of GRF(1-44)-NH2 was 1.95 mg ([…], 37%). FAB-MS: (M+H)^+ Calc: 5040.7, Found: 5040.5. Amino Acid Anal (6M HCl; 110° C., 72 h.): Asp, 4.12(4); Thr, 0.97(1); Ser, 3.65(4); Glu, 7.54(7); Gly, 2.99(3); Ala, 5.27(5); Val, 1.04(1); Met, 0.92(1); Ile, 2.01(2); Leu, 5.13(5); Tyr, 1.87(2); Phe, 0.91(1); Lys, 2.03(2); Arg, 5.54(6). […]
Substance,Level of activity / potency among GRF forms [1],In vitro biological potency [2]
"GRF(1-40)-OH (YADAIFTNSYRKVLGQLSARKLLQDIMSRQQGESNQERGA-OH; UniProt P01286 32-71, looked up, fragment) [free acid form of Growth Hormone Releasing Factor mentioned in the background, reference compound]",substantially lower level of activity,–
GRF(1-44)-NH2,full intrinsic activity and highest potency,0.92±0.22
